Test results reported in patent publication US20230203025A1, “ENHANCERS OF PARTICULATE GUANYLYL CYCLASE RECEPTOR A” (Mayo Foundation for Medical Education and Research, priority 2020, published 2023).

Experiments:
pGC-A = molecular target: T1, pGC-A (Homo sapiens, UniProt P16066); assay: cGMP production by HTRF in HEK293 cells overexpressing pGC-A; assay type: cell-based
T1 construct: expressed in transfected cells; host or cells: HEK293
T1 sequence (P16066 33-1061): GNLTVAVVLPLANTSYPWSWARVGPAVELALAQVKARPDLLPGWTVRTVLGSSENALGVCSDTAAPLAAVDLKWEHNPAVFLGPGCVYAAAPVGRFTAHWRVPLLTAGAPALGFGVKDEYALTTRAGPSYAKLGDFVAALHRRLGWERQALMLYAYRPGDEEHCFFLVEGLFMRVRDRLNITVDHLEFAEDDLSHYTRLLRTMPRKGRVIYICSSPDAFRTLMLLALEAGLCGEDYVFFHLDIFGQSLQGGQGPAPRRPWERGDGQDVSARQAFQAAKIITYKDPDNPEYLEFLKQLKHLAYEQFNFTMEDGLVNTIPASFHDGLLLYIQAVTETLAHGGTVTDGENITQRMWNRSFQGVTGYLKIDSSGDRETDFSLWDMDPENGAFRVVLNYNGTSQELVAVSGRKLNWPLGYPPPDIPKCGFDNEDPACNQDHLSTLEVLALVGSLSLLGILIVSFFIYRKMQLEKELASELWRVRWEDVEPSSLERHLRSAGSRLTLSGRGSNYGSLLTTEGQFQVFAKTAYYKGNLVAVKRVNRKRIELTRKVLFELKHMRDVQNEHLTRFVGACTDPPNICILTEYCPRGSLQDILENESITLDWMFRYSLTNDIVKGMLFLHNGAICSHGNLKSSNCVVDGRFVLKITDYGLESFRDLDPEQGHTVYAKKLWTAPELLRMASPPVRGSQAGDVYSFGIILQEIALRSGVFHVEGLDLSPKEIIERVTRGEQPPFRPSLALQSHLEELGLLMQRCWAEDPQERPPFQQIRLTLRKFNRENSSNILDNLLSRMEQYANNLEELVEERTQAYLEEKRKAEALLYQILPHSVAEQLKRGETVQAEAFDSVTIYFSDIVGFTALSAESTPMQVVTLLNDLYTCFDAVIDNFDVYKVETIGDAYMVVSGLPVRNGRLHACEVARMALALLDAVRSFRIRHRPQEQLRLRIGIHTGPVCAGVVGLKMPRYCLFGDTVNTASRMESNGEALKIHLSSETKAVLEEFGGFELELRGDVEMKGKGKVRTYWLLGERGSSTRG
T1 sequence (P01160 124-151 partner limits assumed): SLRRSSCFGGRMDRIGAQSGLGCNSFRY
Experimental: Assay details: 20 nL of 10 μM test compound in DMSO was added to columns 5-48 of 1536 well white high base screening plates (Corning, New York, N.Y.) cells using 550 ECHO acoustic dispenser (Labcyte, San Jose, Calif.). […] HEK293 cells overexpressing GC-A were resuspended in assay media (OptimMem media containing 2% Heat-inactivated Fetal bovine serum and L-glutamine) at a density of 6×10^5 cells/mL and 2 μL were plated in screening plates (1200 cells/well) in suspension using a Bioraptr 2. Plates were spun at 1000 rpm for 1 min and incubated for 30 min at room temperature. 1.5 μL d2-labled cGMP followed by 1.5 uL Eu^3+ cryptate-labeled anti-cGMP cGMP detection kit (CiBio; #62GM2PEC) prepared according to manufacturer's protocol were added to all wells using a Bioraptr 2 and TR-FRET signal was detected on an EnVision detector (PerkinElmer).

[1] = molecular target: T2, extracellular domain human GC-A recombinant protein (Homo sapiens, UniProt P16066); assay: SPR GC-A binding studies (Example 7); conditions: Compound 19 alone, His-tagged GC-A on Ni-NTA chip
T2 construct: extracellular domain human GC-A recombinant protein; purchased MyBioSource, Inc
T2 sequence (P16066 33-473 limits assumed): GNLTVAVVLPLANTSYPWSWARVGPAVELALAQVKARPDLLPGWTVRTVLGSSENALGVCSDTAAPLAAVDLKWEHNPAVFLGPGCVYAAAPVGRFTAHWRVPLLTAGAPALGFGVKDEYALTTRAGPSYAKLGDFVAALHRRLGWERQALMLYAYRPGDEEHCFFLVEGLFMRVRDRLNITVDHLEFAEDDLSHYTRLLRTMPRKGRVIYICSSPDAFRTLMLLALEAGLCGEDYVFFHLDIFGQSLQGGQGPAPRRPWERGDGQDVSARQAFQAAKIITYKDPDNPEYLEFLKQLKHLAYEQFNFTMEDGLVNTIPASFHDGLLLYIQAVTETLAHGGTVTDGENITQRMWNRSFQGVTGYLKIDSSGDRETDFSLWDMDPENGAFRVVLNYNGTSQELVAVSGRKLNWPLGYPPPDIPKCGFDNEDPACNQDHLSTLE
Experimental: Methods (GC-A Binding Studies): Surface plasmon resonance (SPR) measurements were performed at 25° C. on a BI-4500 SPR instrument (Biosensing Instrument Inc. Tempe AZ). […] Data was collected as sensorgrams. Binding kinetics were derived from sensorgrams using BI-Data Analysis Program (Biosensing Instrument, Tempe Ariz.).

[2] = system: primary human cardiomyocytes (HCMs); assay: cGMP generation in primary human cardiomyocytes; assay type: cell-based
[3] = hepatic microsomal stability, mouse; assay type: in vitro ADME
[4] = system: spontaneously hypertensive rats (SHRs); assay: IV bolus in spontaneously hypertensive rats; assay type: in vivo, rat; conditions: SHR, single IV bolus 10 mg/kg
Experimental: Methods (IV Bolus Administration of Compound 19 in (SHRs): the cGMP generating and blood pressure lowering actions of a single IV bolus dose of Compound 19 at 10 mg/kg in spontaneously hypertensive rats (SHRs; n=2; 12 weeks old; Envigo, East Millstone, N.J.) were investigated. Studies were performed in accordance with the Animal Welfare Act and with approval of the Mayo Clinic Institutional Animal Care and Use Committee.
SHRs were anesthetized in an induction chamber with inhaled isoflurane 3%.
During this brief state of anesthesia, SHRs were administered Inactin (100 mg/kg; IP to induce anesthesia and then maintained with by additional Inactin 100 mg/kg (IP), as required. Once adequate anesthesia was achieved, the anesthetized SHRs were subjected to vessel and bladder cannulation for Compound 19 administration, blood sampling and urine collection. A polyethylene (PE)-50 tube catheter was placed into the jugular vein for Compound 19 intravenous (IV) administration. The carotid artery was cannulated with a PE-50 tube catheter for blood pressure monitoring and blood sampling/collection. The bladder was accessed and cannulated with a PE-50 tube catheter for passive urine collection. After completion of the above procedural set up, a 45-minute equilibration period was performed that included a 30-minute baseline urine collection and a single baseline blood sample was performed.

Emax (pGC-A; HEK293, cGMP normalized to maximal amount produced by an EC80 concentration of ANP, read-out: Max efficacy): 82%
EC50 (pGC-A; HEK293 pGC-A cells, cGMP HTRF, in the presence of EC20 concentration of ANP): 390 nM
cGMP activity in cells expressing pGC-A (pGC-A; in the absence of ANP): devoid of cGMP activity
Kd [1]: 390 nM
Hepatic Microsomal Stability (% remaining at 1 h) [3]: 83.6%
SMILES: CN(C)CCN1CCCC(C(=O)Nc2nc3c(F)cc(F)cc3s2)C1 (centres unmarked) [Compound 19]
cGMP generation ([2]; HCMs, 1, 5 or 10 μM compound in the presence of ANP (10^−10 M)): clear increase in cGMP generation
cGMP generation ([2]; HCMs, compound alone at similar dose, no ANP): did not generate cGMP generation
diuresis (urine volume) [4]: increase in diuresis
mean arterial pressure ([4]; 0-60 min): decrease in mean arterial pressure
plasma cGMP ([4]; compared to baseline): increase
urinary cGMP ([4]; compared to baseline): increase
